Like-named read-outs stand apart in the source and are kept apart here.
Target: SARS2 protease (Severe acute respiratory syndrome coronavirus 2, UniProt P0DTD1)
Assay: SARS-CoV-2 protease inhibition assay (SARS2 FRET protease assay)
Assay type: biochemical
Procedure: Viral protease assays: The antiviral activities of inhibitors were determined by FRET (Fluorescence Resonance Energy Transfer) assay. Purified viral protease was incubated with the protease substrate peptide (Edans-DFHLQ/GP-Dabcyl) and inhibitor, and IC50 values were subsequently determined by the fluorescence signals.
The SARS2 FRET protease assay was performed in 20 mM HEPES-Na pH 7, 120 mM NaCl, 0.4 mM EDTA, 0.01% Triton, 5% glycerol, and 4 mM DTT. A self-quenching peptide substrate 5-FAM-TSA VLQ SGF RKK (5TAMRA)-NH2 was custom synthesized by Anaspec. Compounds were diluted in 3-fold serial dilutions to final concentrations of 20 μM to 1.0 nM. SARS2 protease was added to a final concentration of 25 nM, depending on the enzyme activity level, and the peptide substrate was added to a final concentration of 1.3 μM. The assay was incubated 30 minutes at 30° C. and read in a Perkin Elmer Envision with excitation at 473 nm and emission measurement at 519 nm.

[1] = Table E, SARS-CoV-2 protease inhibition, read-out: IC50

Row | SMILES | IC50 [1] [µM] | IC50 [µM]
1 | CCCCCCCCC(=O)N[C@@H](CC(C)C)C(=O)NC1(C)CCC(=O)N(C)C1(O)C(=O)NC(C)C (stereo partly drawn) [Compound A5, 2-hydroxy-N-isopropyl-1,3-dimethyl-3-((S)-4-methyl-2-nonanamidopentanamido)-6-oxopiperidine-2-carboxamide] | > 200 | 
2 | CCNC(=O)OCCN(C)C(=O)CC[C@H](NC(=O)[C@H](CC1CCCCC1)NC(=O)OCc1cccc(Cl)c1)C(O)P(=O)(OCC)OCC (stereo partly drawn) [Compound A28, 3-Chlorobenzyl ((12S,15S)-16-cyclohexyl-12-((diethoxyphosphoryl)(hydroxy)methyl)-8-methyl-4,9,14-trioxo-5-oxa-3,8,13-triazahexadecan-15-yl)carbamate] | > 200 | 
3 | CON(C)C(=O)[C@H](CC(C)C(=O)N(C)CCc1ccccc1)NC(=O)[C@H](CC1CCCCC1)NC(=O)OCc1cccc(Cl)c1 (stereo in doubt) [Compound A37, 3-Chlorobenzyl ((2S)-3-cyclohexyl-1-(((2S)-1-(methoxy (methyl)amino)-4-methyl-5-(methyl (phenethyl)amino)-1,5-dioxopentan-2-yl)amino)-1-oxopropan-2-yl) carbamate] | > 200 | 
4 | CC(C)C[C@@H]1NC(=O)C(Cc2ccccc2)CCCC/C=C/CC2CC(NC1=O)C(O)N(C)C2=O (stereo partly drawn) [Compound B21, (4S,E)-7-benzyl-18-hydroxy-4-isobutyl-17-methyl-2,5,17-triazabicyclo[13.3.1]nonadec-12-ene-3,6,16-trione] | 89.8 | 
5 | CON(C)C(=O)[C@H](CCC(=O)N(C)CC(C)c1ccccc1)NC(=O)[C@H](CC1CCCCC1)NC(=O)OCc1cccc(Cl)c1 (stereo in doubt) [Compound A35, 3-chlorobenzyl ((2S)-3-cyclohexyl-1-(((2S)-1-(methoxy(methyl)amino)-5-(methyl(2-phenylpropyl)amino)-1,5-dioxopentan-2-yl)amino)-1-oxopropan-2-yl)carbamate] | > 200 | 
6 | CCCCCCCCC(=O)N[C@@H](CC(C)C)C1=NC(CCC(=O)NC)CO1 (stereo partly shown) [Compound A112, N-((1 S)-3-methyl-1-(4-(3-(methylamino)-3-oxopropyl)-4,5-dihydrooxazol-2-yl)butyl)nonanamide] | > 200 | 
7 | CON(C)C(=O)[C@H](CCC(=O)N(C)CCc1ccccc1)NC(=O)[C@H](CC1CCCCC1)NC(=O)OCc1cccc(Cl)c1 (stereo in doubt) [Compound A30, 3-chlorobenzyl ((S)-3-cyclohexyl-1-(((S)-1-(methoxy(methyl)amino)-5-(methyl(phenethyl)amino)-1,5-dioxopentan-2-yl)amino)-1-oxopropan-2-yl)carbamate] | > 200 | 
8 | CCCCCCCC1CCCCCCCC(C(=O)N(C)C)CC(C(=O)N(C)OC)NC(=O)[C@H](CC(C)C)NC1=O (stereo in doubt) [Compound B9, (2S,5S)-15-heptyl-2-isobutyl-N^5-methoxy-N^5,N^7,N^7-trimethyl-3,16-dioxo-1,4-diazacyclohexadecane-5,7-dicarboxamide] | > 200 | 
9 | CCN(CCc1ccccc1)C(=O)CC[C@H](NC(=O)[C@H](CC1CCCCC1)NC(=O)OCc1cccc(Cl)c1)C(=O)N(C)OC (stereo in doubt) [Compound A42, 3-Chlorobenzyl ((S)-3-cyclohexyl-1-(((S)-5-(ethyl(phenethyl)amino)-1-(methoxy(methyl)amino)-1,5-dioxopentan-2-yl)amino)-1-oxopropan-2-yl)carbamate] | > 200 | 
10 | CCCCCCCC1CCC/C=C/CC(C(=O)N(C)C)CC(C(=O)N(C)OC)NC(=O)[C@H](CC(C)C)NC(=O)O1 (stereo in doubt) [Compound B13, (4S,7S,E)-16-Heptyl-4-isobutyl-N^7-methoxy-N^7,N^9,N^9-trimethyl-2,5-dioxo-1-oxa-3,6-diazacyclohexadec-11-ene-7,9-dicarboxamide] | > 200 | 
11 | CCCC1CCCC/C=C/CC2CC(NC(=O)[C@H](CC(C)C)NC1=O)C(O)(C(=O)NC(C)C)N(C)C2=O (stereo partly drawn) [Compound B26, (4S,E)-18-hydroxy-4-isobutyl-N-isopropyl-17-methyl-3,6,16-trioxo-7-propyl-2,5,17-triazabicyclo[13.3.1]nonadec-12-ene-18-carboxamide] | > 200 | 
12 | CCS(=O)(=O)NCCN(C)C(=O)CC[C@H](NC(=O)[C@H](CC1CCCCC1)NC(=O)OCc1cccc(Cl)c1)C(=O)N(C)OC (stereo in doubt) [Compound A29, 3-Chlorobenzyl ((S)-3-cyclohexyl-1-(((S)-5-((2-(ethylsulfonamido)ethyl)(methyl)amino)-1-(methoxy(methyl)amino)-1,5-dioxopentan-2-yl)amino)-1-oxopropan-2-yl)carbamate] | > 200 | 
13 | CC(C)C[C@@H]1NC(=O)OC(Cc2ccccc2)CCC=CCC(C(=O)N(C)C)C[C@@H](C(=O)C(=O)NC(C)C)NC1=O (stereo partly drawn) [Compound B42, (4S,7S)-15-benzyl-4-isobutyl-7-(2-(isopropylamino)-2-oxoacetyl)-N,N-dimethyl-2,5-dioxo-1-oxa-3,6-diazacyclopentadec-11-ene-9-carboxamide] |  | > 200
14 | CON(C)C(=O)[C@H](CCC(=O)N(C)C)NC(=O)[C@H](CC1CCCCC1)NC(=O)OCc1cccc(Cl)c1 [Compound A3, 3-Chlorobenzyl ((S)-3-cyclohexyl-1-(((S)-5-(dimethylamino)-1-(methoxy (methyl)amino)-1,5-dioxopentan-2-yl)amino)-1-oxopropan-2-yl)carbamate] | > 200 | 
15 | CCOCCOCCN(C)C(=O)CC[C@H](NC(=O)[C@H](CC1CCCCC1)NC(=O)OCc1cccc(Cl)c1)C(=O)N(C)OC [Compound A20, 3-Chlorobenzyl ((13S,16S)-17-cyclohexyl-13-(methoxy(methyl)carbamoyl)-9-methyl-10,15-dioxo-3,6-dioxa-9,14-diazaheptadecan-16-yl)carbamate] | > 200 | 
16 | CC(C)CC1NC(=O)OC(Cc2ccccc2)CC/C=C/CC(C(=O)N(C)C)CC(C=O)NC1=O (stereo in doubt) [Compound B38, (4S,7S)-15-Benzyl-7-formyl-4-isobutyl-N,N-dimethyl-2,5-dioxo-1-oxa-3,6-diazacyclopentadec-11-ene-9-carboxamide] | 137 | 
17 | CC(C)C[C@@H]1NC(=O)C(Cc2ccccc2)CCCCCCCC2CC(NC1=O)C(O)N(C)C2=O (stereo partly drawn) [Compound B24, (4S)-7-benzyl-18-hydroxy-4-isobutyl-17-methyl-2,5,17-triazabicyclo[13.3.1]nonadecane-3,6,16-trione] | 188 | 
18 | CCCCCCCC1CC/C=C/CC(C(=O)NC)C[C@@H](C(=O)N(C)OC)NC(=O)C(CC(C)C)NC(=O)O1 (single isomer, unassigned) [Compound B33] | > 200 | 
19 | CCOP(=O)(OCC)[C@H](O)[C@@H]1CC(C(=O)N(C)Cc2ccc(OC)cc2OC)C/C=C/CCC(Cc2ccccc2)OC(=O)N[C@@H](CC(C)C)C(=O)N1 (stereo partly drawn) [Compound B28, Diethyl ((1S)-((4S,7S,E)-15-benzyl-9-((2,4-dimethoxybenzyl)(methyl)carbamoyl)-4-isobutyl-2,5-dioxo-1-oxa-3,6-diazacyclopentadec-11-en-7-yl)(hydroxy)methyl)phosphonate] | > 200 | 
20 | CCNC(=O)CN(C)C(=O)CC[C@H](NC(=O)[C@H](CC1CCCCC1)NC(=O)OCc1cccc(Cl)c1)C(O)P(=O)(OCC)OCC (stereo partly drawn) [Compound A17, 3-Chlorobenzyl ((2S)-3-cyclohexyl-1-(((2S)-1-(diethoxyphosphoryl)-5-((2-(ethylamino)-2-oxoethyl) (methyl)amino)-1-hydroxy-5-oxopentan-2-yl)amino)-1-oxopropan-2-yl) carbamate] | 169 | 
21 | CCNC(=O)OCCN(C)C(=O)CC[C@H](NC(=O)[C@H](CC1CCCCC1)NC(=O)OCc1cccc(Cl)c1)C(=O)N(C)OC [Compound A21, 3-Chlorobenzyl ((12S,15S)-16-cyclohexyl-12-(methoxy(methyl)carbamoyl)-8-methyl-4,9,14-trioxo-5-oxa-3,8,13-triazahexadecan-15-yl)carbamate] | > 200 | 
22 | CCCCCCCC1CC/C=C\CC(C(=O)N(C)C)CC(C=O)NC(=O)[C@H](CC(C)C)NC1=O (stereo in doubt) [Compound B10, (2S,5S,Z)-5-formyl-13-heptyl-2-isobutyl-N,N-dimethyl-3,14-dioxo-1,4-diazacyclotetradec-9-ene-7-carboxamide] | 105 | 
23 | CCCCCCCC1CCCCCC(C(=O)N(C)C)CC(C(=O)N(C)OC)NC(=O)[C@H](CC(C)C)NC1=O (stereo in doubt) [Compound B19, (2S,5S)-13-heptyl-2-isobutyl-N^5-methoxy-N^5,N^7,N^7-trimethyl-3,14-dioxo-1,4-diazacyclotetradecane-5,7-dicarboxamide] | > 200 | 
24 | CCOP(=O)(OCC)C(O)[C@H](CCC(=O)N(C)CCc1ccncc1)NC(=O)[C@H](CC1CCCCC1)NC(=O)OCc1cccc(Cl)c1 (stereo partly drawn) [Compound A51, 3-Chlorobenzyl ((2S)-3-cyclohexyl-1-(((2S)-1-(diethoxyphosphoryl)-1-hydroxy-5-(methyl (2-(pyridin-4-yl)ethyl)amino)-5-oxopentan-2-yl)amino)-1-oxopropan-2-yl) carbamate] | > 200 | 
25 | CCCCCCCCC(=O)N[C@@H](CC(C)C)C(=O)N[C@@H](CCC(=O)NC)CSSC[C@H](CCC(=O)NC)NC(=O)[C@H](CC(C)C)NC(=O)CCCCCCCC [Compound A111, N,N′-((2S,2'S)-(((2S,2'S)-disulfanediylbis(5-(methylamino)-5-oxopentane-1,2-diyl))bis(azanediyl))bis(4-methyl-1-oxopentane-1,2-diyl))dinonanamide] | > 200 | 

From US20230151034A1 (COCRYSTAL PHARMA, INC., priority 2020, published 2023)
